Tests used:
[1] = molecular target: HDAC (HeLa nuclear extracts); test: HDAC enzyme assay, HeLa nuclear extracts; details: read-out: In Vitro Enzymatic IC50 HDAC (HeLa)
MOLT-4 = test: Anti-proliferative assay (cellular IC50), MOLT-4; details: Homo sapiens, MOLT-4, 72 h, read-out: In Vitro Cellular IC50 MOLT-4
Description: (§1) Cells were cultivated at 37° C., 5% CO2 in media containing 10% FBS and 2 mM glutamine Cells were routinely monitored with MycoAlert™ PLUS Mycoplasma Detection Kit (Lonza Walkersville, Inc.) to make sure they were mycoplasma free. Antibiotics (100 U/mL of penicillin and 100 μg/mL of streptomycin) were only added to the media used for compound dilution and cells in 96-well assay plates.
(§2) For a typical screening experiment, cells (100 μL/well) are inoculated into 96 well microtiter plates at plating densities ranging from 2,000 to 30,000 cells/well depending on the doubling time of individual cell lines and assay linearity. […] Suspension cells are treated with test compounds immediately after cell inoculation.
(§3) Test compounds are serially diluted (3-fold or 4-fold, 8-concentration) using the same media and added to the plates (15 to 25 μL/well). After 72 h of cultivation, the plates are assayed for cell cytotoxicity/viability by using the following two methods.
(§4) Cells in plates are fixed with cold trichloroacetic acid (TCA) (50% w/v in DI water, 1/4 volume of the medium in each well), and incubated at 4° C. for 1 h (adherent cells) or 2 h (suspension cells). The plates are washed 5 times (tap water×3, DI water×2) and air-dried. SRB solution 0.4% (w/v) in 1% acetic acid is added to each well (60 μL/well) and the plates are incubated at room temperature for 30 min, then washed with 1% acetic acid solution 4 times, and air-dried.
(§5) The plates are added CellTiter-Glo® Reagent (95 μL/well) and read the luminescence on a BioTek H4 reader per manufacture's protocol.
(§6) The raw data are processed using BioTek's Software Gen5 (v2.03.01) to generate inhibitory IC50 values.

HDAC1 = HDAC1 (Homo sapiens, UniProt Q13547); test: HDAC enzyme assay, recombinant HDAC1
COLO 205 = test: cells; details: Homo sapiens, COLO 205, 72 h, read-out: In Vitro Cellular IC50 COLO 205
Description: as §1, §2, §3, §4, §5, §6

K-562 = test: Anti-proliferative assay (cellular IC50), K-562; details: Homo sapiens, K562, 72 h, read-out: In Vitro Cellular IC50 K-562
Description: as §1, §2, §3, §4, §5, §6

HDAC6 = molecular target: T1, HDAC6 (Homo sapiens, UniProt Q9UBN7); test: HDAC enzyme assay, recombinant HDAC6
T1 sequence (Q9UBN7 1-1215): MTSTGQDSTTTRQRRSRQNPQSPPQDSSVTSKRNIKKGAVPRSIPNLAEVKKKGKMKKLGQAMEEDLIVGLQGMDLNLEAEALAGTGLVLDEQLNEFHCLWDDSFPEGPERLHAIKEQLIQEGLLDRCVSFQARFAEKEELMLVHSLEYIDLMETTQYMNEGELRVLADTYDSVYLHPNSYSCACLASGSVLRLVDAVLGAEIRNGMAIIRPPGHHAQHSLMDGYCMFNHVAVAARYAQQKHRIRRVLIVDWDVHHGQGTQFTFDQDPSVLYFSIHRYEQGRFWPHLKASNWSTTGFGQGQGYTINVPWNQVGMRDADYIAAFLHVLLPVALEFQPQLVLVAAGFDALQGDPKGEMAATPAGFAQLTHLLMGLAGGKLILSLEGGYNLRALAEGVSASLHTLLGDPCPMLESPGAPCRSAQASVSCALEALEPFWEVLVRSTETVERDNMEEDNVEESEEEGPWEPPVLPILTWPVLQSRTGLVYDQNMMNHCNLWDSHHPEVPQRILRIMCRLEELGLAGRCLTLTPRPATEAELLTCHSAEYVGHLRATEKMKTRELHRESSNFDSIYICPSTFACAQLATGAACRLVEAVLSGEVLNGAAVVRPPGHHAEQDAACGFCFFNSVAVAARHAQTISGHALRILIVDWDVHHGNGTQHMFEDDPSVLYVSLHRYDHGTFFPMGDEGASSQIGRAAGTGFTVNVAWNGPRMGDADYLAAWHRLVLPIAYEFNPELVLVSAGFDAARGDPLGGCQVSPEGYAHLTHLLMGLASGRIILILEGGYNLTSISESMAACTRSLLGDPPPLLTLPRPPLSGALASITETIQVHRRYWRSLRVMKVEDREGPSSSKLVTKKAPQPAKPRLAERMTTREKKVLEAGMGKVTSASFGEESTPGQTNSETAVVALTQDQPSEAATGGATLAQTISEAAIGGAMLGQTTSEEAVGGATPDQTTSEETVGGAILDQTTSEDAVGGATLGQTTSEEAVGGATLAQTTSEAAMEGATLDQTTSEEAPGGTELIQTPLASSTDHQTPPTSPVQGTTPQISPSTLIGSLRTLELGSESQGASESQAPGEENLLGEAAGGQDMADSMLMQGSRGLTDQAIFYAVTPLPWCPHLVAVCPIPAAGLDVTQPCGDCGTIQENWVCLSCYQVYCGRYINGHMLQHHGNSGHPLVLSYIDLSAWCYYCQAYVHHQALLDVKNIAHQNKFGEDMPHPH

MCF7 = test: Anti-proliferative assay (cellular IC50), MCF7; details: Homo sapiens, MCF7, 72 h, read-out: In Vitro Cellular IC50 MCF7
Description: as §1, §2, §3, §4, §5, §6

MV-4-11 = test: cells; details: Homo sapiens, MV4-11, 72 h, read-out: In Vitro Cellular IC50 MV-4-11
Description: as §1, §2, §3, §4, §5, §6

PC-3 = test: Anti-proliferative assay (cellular IC50), PC-3; details: Homo sapiens, PC-3, 72 h, read-out: In Vitro Cellular IC50 PC-3
Description: as §1, §2, §3, §4, §5, §6

PI3Kα = molecular target: T2, PI3Kα (Homo sapiens, UniProt P42336); test: Kinase enzyme assay (ADP-Glo), PI3Kα; assay type: biochemical; details: read-out: In Vitro Enzymatic IC50 PI3Kα
T2 construct: purchased Invitrogen, or BPS Bioscience Inc., or SignalChem PV4788 / 40620 / P27-18H
T2 sequence (P42336 whole entry): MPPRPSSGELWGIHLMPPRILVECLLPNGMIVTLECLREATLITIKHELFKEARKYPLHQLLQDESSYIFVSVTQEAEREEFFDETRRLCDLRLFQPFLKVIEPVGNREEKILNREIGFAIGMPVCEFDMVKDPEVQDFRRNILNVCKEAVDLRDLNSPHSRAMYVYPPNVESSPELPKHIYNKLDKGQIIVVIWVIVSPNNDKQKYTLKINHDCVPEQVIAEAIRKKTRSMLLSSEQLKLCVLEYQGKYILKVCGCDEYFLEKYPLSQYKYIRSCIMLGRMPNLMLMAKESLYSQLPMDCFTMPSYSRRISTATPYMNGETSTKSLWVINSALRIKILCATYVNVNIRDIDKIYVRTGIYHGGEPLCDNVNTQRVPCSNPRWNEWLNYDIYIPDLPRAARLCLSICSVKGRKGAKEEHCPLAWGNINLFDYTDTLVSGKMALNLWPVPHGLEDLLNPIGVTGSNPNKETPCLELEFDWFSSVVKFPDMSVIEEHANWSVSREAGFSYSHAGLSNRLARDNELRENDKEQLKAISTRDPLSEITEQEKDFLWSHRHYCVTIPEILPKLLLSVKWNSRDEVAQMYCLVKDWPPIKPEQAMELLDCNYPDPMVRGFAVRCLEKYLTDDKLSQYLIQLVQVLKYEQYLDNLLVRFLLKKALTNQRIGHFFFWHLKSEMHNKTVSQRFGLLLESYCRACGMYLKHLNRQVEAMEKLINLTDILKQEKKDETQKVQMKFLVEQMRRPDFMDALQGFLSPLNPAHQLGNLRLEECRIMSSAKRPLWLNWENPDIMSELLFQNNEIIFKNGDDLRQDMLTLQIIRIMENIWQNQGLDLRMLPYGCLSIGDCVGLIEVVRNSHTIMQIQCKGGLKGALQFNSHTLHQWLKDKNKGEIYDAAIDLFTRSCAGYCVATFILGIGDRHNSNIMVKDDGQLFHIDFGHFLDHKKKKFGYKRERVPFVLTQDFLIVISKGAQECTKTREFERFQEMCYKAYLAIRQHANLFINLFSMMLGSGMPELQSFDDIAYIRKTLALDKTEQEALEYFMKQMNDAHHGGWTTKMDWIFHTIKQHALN
T2 sequence (P27986 whole entry partner): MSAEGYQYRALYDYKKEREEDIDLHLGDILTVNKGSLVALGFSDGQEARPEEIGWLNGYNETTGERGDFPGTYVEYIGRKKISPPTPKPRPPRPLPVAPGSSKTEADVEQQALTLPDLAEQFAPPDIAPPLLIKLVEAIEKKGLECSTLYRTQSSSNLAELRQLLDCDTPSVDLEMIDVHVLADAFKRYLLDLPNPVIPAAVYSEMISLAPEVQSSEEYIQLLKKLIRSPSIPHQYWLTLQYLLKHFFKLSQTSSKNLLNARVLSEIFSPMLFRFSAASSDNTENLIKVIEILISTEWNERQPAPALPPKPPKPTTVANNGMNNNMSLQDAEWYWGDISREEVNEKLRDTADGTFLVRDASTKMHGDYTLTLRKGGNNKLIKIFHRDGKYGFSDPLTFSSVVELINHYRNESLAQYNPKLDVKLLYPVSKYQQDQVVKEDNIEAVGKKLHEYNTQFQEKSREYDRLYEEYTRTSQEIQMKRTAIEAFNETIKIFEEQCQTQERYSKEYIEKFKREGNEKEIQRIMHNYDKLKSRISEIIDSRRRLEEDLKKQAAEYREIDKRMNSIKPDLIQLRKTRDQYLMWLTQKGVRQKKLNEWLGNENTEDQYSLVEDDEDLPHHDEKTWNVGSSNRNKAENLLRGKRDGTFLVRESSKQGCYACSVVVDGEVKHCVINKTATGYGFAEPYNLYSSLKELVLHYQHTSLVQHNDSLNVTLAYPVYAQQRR

HCT 116 = test: cells; details: Homo sapiens, HCT-116, 72 h, read-out: In Vitro Cellular IC50 HCT 116
Description: as §1, §2, §3, §4, §5, §6

Sequence of HDAC1 (Q13547 whole entry): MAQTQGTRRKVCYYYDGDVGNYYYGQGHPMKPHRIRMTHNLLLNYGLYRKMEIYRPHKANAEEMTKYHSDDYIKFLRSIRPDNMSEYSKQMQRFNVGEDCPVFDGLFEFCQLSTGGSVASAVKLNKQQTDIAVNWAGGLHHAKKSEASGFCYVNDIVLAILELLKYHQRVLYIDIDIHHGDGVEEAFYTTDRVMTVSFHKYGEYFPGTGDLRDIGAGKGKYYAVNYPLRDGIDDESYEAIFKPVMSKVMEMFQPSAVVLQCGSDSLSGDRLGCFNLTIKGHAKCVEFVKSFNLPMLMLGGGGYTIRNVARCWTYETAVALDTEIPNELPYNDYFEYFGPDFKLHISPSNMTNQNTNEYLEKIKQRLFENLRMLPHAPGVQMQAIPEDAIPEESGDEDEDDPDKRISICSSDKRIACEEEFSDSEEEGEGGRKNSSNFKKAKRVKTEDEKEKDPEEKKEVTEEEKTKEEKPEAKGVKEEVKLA

| SMILES | IC50 [1] | IC50 (MOLT-4) | IC50 (HDAC1) | IC50 (COLO 205) | IC50 (K-562) | IC50 (HDAC6) | further results |
| --- | --- | --- | --- | --- | --- | --- | --- |
| CC(C)n1cnc2c(N3CCOCC3)nc(-c3cccc(OCCCC(=O)NO)c3)nc21 [compound 83, N-hydroxy-4-(3-(9-isopropyl-6-morpholino-9H-purin-2-yl)phenoxy)butanamide] | 100 to 1000 nM | 500 to 2000 nM | 100 to 1000 nM | 2000 to 10000 nM | 2000 to 10000 nM |  |  |
| O=C(CCCCCCn1cnc2c(N3CCOCC3)nc(-c3cn[nH]c3)nc21)NO [compound 51, N-hydroxy-7-(6-morpholino-2-(1H-pyrazol-4-yl)-9H-purin-9-yl)heptanamide] |  |  |  |  |  | < 10 nM |  |
| Nc1ncc(-c2nc(N3CCOCC3)nc3c2ncn3CCCCCCC(=O)NO)cn1 [compound 3] |  |  |  |  |  | 10 to 100 nM |  |
| CCN(CC)c1nc(-c2cccc(OCCCC(=O)NO)c2)c2ncn(C(C)C)c2n1 [compound 30, 4-(3-(2-(diethylamino)-9-isopropyl-9H-purin-6-yl)phenoxy)-N-hydroxybutanamide] | 100 to 1000 nM |  | 1000 to 10000 nM | 2000 to 10000 nM | 2000 to 10000 nM |  | IC50 (MCF7): 2000 to 10000 nM; IC50 (MV-4-11): < 500 nM; IC50 (PC-3): < 500 nM |
| CC(C)n1cnc2c(N3CCOCC3)nc(-c3cccc(OCCCCCCC(=O)NO)c3)nc21 [compound 84, N-hydroxy-7-(3-(9-isopropyl-6-morpholino-9H-purin-2-yl)phenoxy)heptanamide] | 10 to 100 nM | 2000 to 10000 nM | 100 to 1000 nM | > 10000 nM | 2000 to 10000 nM |  |  |
| Nc1ncc(-c2nc(N3CCOCC3)c3ncn(CCCCCCC(=O)NO)c3n2)cn1 [compound 41, 7-(2-(2-aminopyrimidin-5-yl)-6-morpholino-9H-purin-9-yl)-N-hydroxyheptanamide] |  |  |  |  |  | < 10 nM |  |
| CC(=O)Nc1cccc(-c2nc(N3CCOCC3)c3ncn(CCCCCCC(=O)NO)c3n2)c1 [compound 48, 7-(2-(3-acetamidophenyl)-6-morpholino-9H-purin-9-yl)-N-hydroxyheptanamide] |  |  |  |  |  | < 10 nM |  |
| COc1ccc(-c2nc(N3CCOCC3)c3ncn(CCCCCCC(=O)NO)c3n2)cn1 [compound 52, N-hydroxy-7-(2-(6-methoxypyridin-3-yl)-6-morpholino-9H-purin-9-yl)heptanamide] |  |  |  |  |  | 10 to 100 nM |  |
| COc1ncc(-c2nc(N3CCOCC3)c3ncn(CCCCCCC(=O)NO)c3n2)cn1 [compound 55, N-hydroxy-7-(2-(2-methoxypyrimidin-5-yl)-6-morpholino-9H-purin-9-yl)heptanamide] |  |  |  |  |  | 10 to 100 nM |  |
| CC(C)n1cnc2c(-c3cccc(OCC(=O)NO)c3)nc(N3CCOCC3)nc21 [compound 24, N-hydroxy-2-(3-(9-isopropyl-2-morpholino-9H-purin-6-yl)phenoxy)acetamide] |  |  | 1000 to 10000 nM |  |  |  | IC50 (PI3Kα): 1000 to 10000 nM |
| O=C(CCCCCCn1ccc2c(N3CCOCC3)nc(-c3cccc(O)c3)nc21)NO [compound 79, N-hydroxy-7-(2-(3-hydroxyphenyl)-4-morpholino-7H-pyrrolo[2,3-d]pyrimidin-7-yl)heptanamide] |  |  |  |  |  | < 10 nM |  |
| NC(=O)c1cccc(-c2nc(N3CCOCC3)c3ncn(CCCCCCC(=O)NO)c3n2)c1 [compound 49, 3-(9-(7-(hydroxyamino)-7-oxoheptyl)-6-morpholino-9H-purin-2-yl)benzamide] |  |  |  |  |  | < 10 nM |  |
| CC(C)n1cnc2c(N3CCOCC3)nc(-c3cccc(NC(=O)CCCCCCC(=O)NO)c3)nc21 [compound 85, N^1-hydroxy-N^8-(3-(9-isopropyl-6-morpholino-9H-purin-2-yl)phenyl)octanediamide] | < 10 nM | < 500 nM | 10 to 100 nM | 500 to 2000 nM | 500 to 2000 nM |  | IC50 (MCF7): 500 to 2000 nM; IC50 (MV-4-11): 500 to 2000 nM; IC50 (PC-3): 2000 to 10000 nM |

More lines, main results first:

| IC50 [1] | IC50 (MOLT-4) | IC50 (HDAC1) | IC50 (COLO 205) | IC50 (K-562) | IC50 (HDAC6) | SMILES | further results |
| --- | --- | --- | --- | --- | --- | --- | --- |
| 100 to 1000 nM | 2000 to 10000 nM | 100 to 1000 nM | 2000 to 10000 nM | 2000 to 10000 nM | 100 to 1000 nM | CCn1c(CN(C)Cc2ccc(/C=C/C(=O)NO)cc2)nc2c(N3CCOCC3)nc(-c3cccc(NC(C)=O)c3)nc21 [compound 92, (E)-3-(4-((((2-(3-acetamidophenyl)-9-ethyl-6-morpholino-9H-purin-8-yl)methyl)(methyl)amino)methyl)phenyl)-N-hydroxyacrylamide] | IC50 (PI3Kα): 100 to 1000 nM |
|  | 2000 to 10000 nM | 1000 to 10000 nM | > 10000 nM | > 10000 nM |  | CCn1c(CN2CCC(C(=O)NO)CC2)nc2c(N3CCOCC3)nc(-c3cnc(N)nc3)nc21 [compound 88, 1-((2-(2-aminopyrimidin-5-yl)-9-ethyl-6-morpholino-9H-purin-8-yl)methyl)-N-hydroxypiperidine-4-carboxamide] |  |
| < 10 nM | < 500 nM |  |  |  |  | O=C(CCCCCCn1cnc2c(N3CCC(CO)CC3)nc(-c3cccc(CO)c3)nc21)NO [compound 103, N-hydroxy-7-(2-(3-(hydroxymethyl)phenyl)-6-(4-(hydroxymethyl)piperidin-1-yl)-9H-purin-9-yl)heptanamide] | IC50 (MCF7): 500 to 2000 nM; IC50 (MV-4-11): < 500 nM |
| 100 to 1000 nM | 2000 to 10000 nM | 100 to 1000 nM | 2000 to 10000 nM | 2000 to 10000 nM |  | CCn1c(CN(C)Cc2ccc(/C=C/C(=O)NO)cc2)nc2c(N3CCOCC3)nc(-c3ccc(C(N)=O)cc3)nc21 [compound 90, (E)-4-(9-ethyl-8-(((4-(3-(hydroxyamino)-3-oxoprop-1-en-1-yl)benzyl)(methyl)amino)methyl)-6-morpholino-9H-purin-2-yl)benzamide] | IC50 (PI3Kα): 100 to 1000 nM |
| 1000 to 10000 nM | 500 to 2000 nM | 1000 to 10000 nM | 2000 to 10000 nM | 2000 to 10000 nM |  | CC(C)n1c(N2CCC(C(=O)NO)CC2)nc2c(N3CCOCC3)nc(-c3cnc(N)nc3)nc21 [compound 86, 1-(2-(2-aminopyrimidin-5-yl)-9-isopropyl-6-morpholino-9H-purin-8-yl)-N-hydroxypiperidine-4-carboxamide] | IC50 (PI3Kα): 10 to 100 nM |
| 100 to 1000 nM | 2000 to 10000 nM | 100 to 1000 nM | > 10000 nM | > 10000 nM | 100 to 1000 nM | CCn1c(CNCCCCCC(=O)NO)nc2c(N3CCOCC3)nc(-c3cnc(N)nc3)nc21 [compound 87, 6-(((2-(2-aminopyrimidin-5-yl)-9-ethyl-6-morpholino-9H-purin-8-yl)methyl)amino)-N-hydroxyhexanamide] | IC50 (PI3Kα): 10 to 100 nM |
| 100 to 1000 nM | 2000 to 10000 nM | 100 to 1000 nM | 2000 to 10000 nM | 2000 to 10000 nM |  | CCn1c(CN(C)Cc2ccc(/C=C/C(=O)NO)cc2)nc2c(N3CCOCC3)nc(-c3cccc(C(N)=O)c3)nc21 [compound 91, (E)-3-(9-ethyl-8-(((4-(3-(hydroxyamino)-3-oxoprop-1-en-1-yl)benzyl)(methyl)amino)methyl)-6-morpholino-9H-purin-2-yl)benzamide] | IC50 (PI3Kα): 100 to 1000 nM |
| < 10 nM | < 500 nM |  |  |  |  | O=C(CCCCCCn1cnc2c(N3CCC(O)CC3)nc(-c3cccc(CO)c3)nc21)NO [compound 105, N-hydroxy-7-(2-(3-(hydroxymethyl)phenyl)-6-(4-hydroxypiperidin-l-yl)-9H-purin-9-yl)heptanamide] | IC50 (MCF7): 500 to 2000 nM; IC50 (HCT 116): 500 to 2000 nM; IC50 (MV-4-11): < 500 nM |

Reference: patent US9957270B2, “Fused pyrimidine-based hydroxamate derivatives” (Agency for Science, Technology and Research, priority 2014, dated 2018)
